Data published in patent publication US20120171126A1, “NOVEL [3,2-c] HETEROARYL STEROIDS AS GLUCOCORTICOID RECEPTOR AGONISTS COMPOSITIONS AND USES THEREOF” (priority 2009, published 2012).

Assays:
[1] = tested on: human glucocorticoid response element coupled with a luciferase reporter gene; test: GRE-transactivation assay (HeLa-GRE luciferase, TA); type: cell-based; conditions: HeLa cells, 24 hours, luciferase, read-out: EMAX value, GRE-transactivation assay
Procedure: HeLa cells were stably transfected with a human glucocorticoid response element coupled with a luciferase reporter gene. Cells were plated in 96 well Packard View Plates (black sides/ clear bottom) at 20 K cells/0.2 ml complete medium. Plates were incubated overnight at 37°/5% CO2. Medium was aspirated and replaced with 150 μl medium containing 5% charcoal-treated FBS and cells incubated overnight again. Test compounds were prepared in 5% charcoal-treated FBS medium. Medium was aspirated from plates and replaced with 100 μl of test compounds or controls. Plates were returned to incubator for exactly 24 hours. To measure induced luciferase, 100 μl of Steady-Glo luciferase assay substrate (Promega) was added to each well. Plates were sealed and mixed on a plate shaker for 5 minutes. Plate bottom opaque seals were added and the plates were allowed to stand for 60 minutes. Luminescence was measured on a Top-Count instrument (Perkin-Elmer).

IL-8 = test: Glucocorticoid transrepression assay, IL-8 inhibition (TR); type: cell-based; conditions: Homo sapiens, Table 1, NCl-H292 cells, TNFα 10 ng/ml; for Emax: read-out: IL-8 inhibition (TR) Emax % inhibition
How it was run: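 Human lung epithelial NCI-H292 cells at 75-90% confluence were pretreated with steroid or antagonist for 1 h at 37 °C. TNFα was then added at 10 ng/ml final and cells were incubated overnight, with 10 μM dexamethasone as the maximum-inhibition control. Secreted IL-6 and IL-8 were measured in the medium by MSD multi-spot immunoassay.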

Compound | Emax [1] [%] | Emax (IL-8) [%] | IC50 (IL-8) [nM]
CC12Cc3cnn(-c4ccc(F)cc4)c3C=C1CCC1C2[C@@H](O)CC2(C)C1CC[C@]2(O)C(=O)Cn1cc(-c2ccccc2)cn1 (stereo partly shown) [Compound 1] | 69 |  | 
CC12Cc3cnn(C(C)(C)C)c3C=C1CCC1C2[C@@H](O)CC2(C)C1CC[C@]2(O)C(=O)CSc1ccc2ccccc2n1 (stereo partly shown) [Compound 67] |  | < 60 | 
CC12Cc3cnn(C(C)(C)C)c3C=C1CCC1C2[C@@H](O)CC2(C)C1CC[C@]2(O)C(=O)CSc1nc2ccccc2[nH]1 (stereo partly shown) [Compound 68] |  | < 60 | 
CC12Cc3cnn(C4CCOCC4)c3C=C1CCC1C2[C@@H](O)CC2(C)C1CC[C@]2(O)C(=O)CSc1nc2ccccc2s1 (stereo partly shown) [Compound 69] |  | 70 to 80 | 66 to 400
Cn1c(SCC(=O)[C@@]2(O)CCC3C4CCC5=Cc6c(cnn6C6CCOCC6)CC5(C)C4[C@@H](O)CC32C)nc2ccccc21 (stereo partly shown) [Compound 70] |  | > 80 | 21 to 65
CC12Cc3cnn(C4CCOCC4)c3C=C1CCC1C2[C@@H](O)CC2(C)C1CC[C@]2(O)C(=O)CSc1nc2ncccc2o1 (stereo partly shown) [Compound 72] |  | > 80 | 21 to 65
CC12Cc3cnn(C4CCOCC4)c3C=C1CCC1C2[C@@H](O)CC2(C)C1CC[C@]2(O)C(=O)CSc1ccccn1 (stereo partly shown) [Compound 73] |  | > 80 | 0.06 to 20
CC12Cc3cnn(C4CCOCC4)c3C=C1CCC1C2[C@@H](O)CC2(C)C1CC[C@]2(O)C(=O)CSc1nc2ccccc2[nH]1 (stereo partly shown) [Compound 75] |  | < 60 | 
Cc1ccccc1-n1ncc2c1C=C1CCC3C([C@@H](O)CC4(C)C3CC[C@]4(O)C(=O)CSc3nc4ccccc4s3)C1(C)C2 (stereo partly shown) [Compound 76] |  | < 60 | 
Cc1ccccc1-n1ncc2c1C=C1CCC3C([C@@H](O)CC4(C)C3CC[C@]4(O)C(=O)CSc3nc4ccccc4n3C)C1(C)C2 (stereo partly shown) [Compound 77] |  | < 60 | 
Cc1ccccc1-n1ncc2c1C=C1CCC3C([C@@H](O)CC4(C)C3CC[C@]4(O)C(=O)CSc3nc4cccnc4s3)C1(C)C2 (stereo partly shown) [Compound 78] |  | < 60 | 
Cc1ccccc1-n1ncc2c1C=C1CCC3C([C@@H](O)CC4(C)C3CC[C@]4(O)C(=O)CSc3nc4ncccc4o3)C1(C)C2 (stereo partly shown) [Compound 79] |  | < 60 | 
Cc1ccccc1-n1ncc2c1C=C1CCC3C([C@@H](O)CC4(C)C3CC[C@]4(O)C(=O)CSc3ccccn3)C1(C)C2 (stereo partly shown) [Compound 80] |  | < 60 | 
Cc1ccccc1-n1ncc2c1C=C1CCC3C([C@@H](O)CC4(C)C3CC[C@]4(O)C(=O)CSc3ccc4ccccc4n3)C1(C)C2 (stereo partly shown) [Compound 81] |  | < 60 | 
Cc1ccccc1-n1ncc2c1C=C1CCC3C([C@@H](O)CC4(C)C3CC[C@]4(O)C(=O)CSc3nc4ccccc4[nH]3)C1(C)C2 (stereo partly shown) [Compound 82] |  | < 60 | 
CC12Cc3cnn(-c4nc5ccccc5[nH]4)c3C=C1CCC1C2[C@@H](O)CC2(C)C1CC[C@]2(O)C(=O)CSc1nc2ccccc2s1 (stereo partly shown) [Compound 83] |  | < 60 | 
Cn1c(SCC(=O)[C@@]2(O)CCC3C4CCC5=Cc6c(cnn6-c6nc7ccccc7[nH]6)CC5(C)C4[C@@H](O)CC32C)nc2ccccc21 (stereo partly shown) [Compound 84] |  | < 60 | 
COc1ccc(-n2ncc3c2C=C2CCC4C([C@@H](O)CC5(C)C4CC[C@]5(O)C(=O)CSc4nc5ccccc5s4)C2(C)C3)cc1 (stereo partly shown) [Compound 85] |  | 70 to 80 | 66 to 400
COc1ccc(-n2ncc3c2C=C2CCC4C([C@@H](O)CC5(C)C4CC[C@]5(O)C(=O)CSc4nc5ccccc5n4C)C2(C)C3)cc1 (stereo partly shown) [Compound 86] |  | 70 to 80 | 66 to 400
COc1ccc(-n2ncc3c2C=C2CCC4C([C@@H](O)CC5(C)C4CC[C@]5(O)C(=O)CSc4nc5cccnc5s4)C2(C)C3)cc1 (stereo partly shown) [Compound 87] |  | 60 to 70 | 66 to 400
COc1ccc(-n2ncc3c2C=C2CCC4C([C@@H](O)CC5(C)C4CC[C@]5(O)C(=O)CSc4ccccn4)C2(C)C3)cc1 (stereo partly shown) [Compound 88] |  | 60 to 70 | 66 to 400
COc1ccc(-n2ncc3c2C=C2CCC4C([C@@H](O)CC5(C)C4CC[C@]5(O)C(=O)CSc4ccc5ccccc5n4)C2(C)C3)cc1 (stereo partly shown) [Compound 89] |  | < 60 | 
CC(C)(C)c1ccc(-n2ncc3c2C=C2CCC4C([C@@H](O)CC5(C)C4CC[C@]5(O)C(=O)CSc4nc5ccccc5s4)C2(C)C3)cc1 (stereo partly shown) [Compound 90] |  | < 60 | 
Cn1c(SCC(=O)[C@@]2(O)CCC3C4CCC5=Cc6c(cnn6-c6ccc(C(C)(C)C)cc6)CC5(C)C4[C@@H](O)CC32C)nc2ccccc21 (stereo partly shown) [Compound 91] |  | < 60 | 
CC(C)(C)c1ccc(-n2ncc3c2C=C2CCC4C([C@@H](O)CC5(C)C4CC[C@]5(O)C(=O)CSc4nc5cccnc5s4)C2(C)C3)cc1 (stereo partly shown) [Compound 92] |  | < 60 | 

Compound | Emax [1] [%] | Emax (IL-8) [%] | IC50 (IL-8) [nM]
CC(C)(C)c1ccc(-n2ncc3c2C=C2CCC4C([C@@H](O)CC5(C)C4CC[C@]5(O)C(=O)CSc4ccccn4)C2(C)C3)cc1 (stereo partly shown) [Compound 93] |  | < 60 | 
CC12Cc3cnn(-c4ccc(F)cc4)c3C=C1CCC1C2[C@@H](O)CC2(C)C1CC[C@]2(O)C(=O)CSc1nc2ccc(O)cc2[nH]1 (stereo partly shown) [Compound 94] |  | > 80 | 0.06 to 20
CC12Cc3cnn(-c4ccc(F)cc4)c3C=C1CCC1C2[C@@H](O)CC2(C)C1CC[C@]2(O)C(=O)CSc1nc(-c2ccccc2)c(-c2ccccc2)o1 (stereo partly shown) [Compound 96] |  | > 80 | 66 to 400
Cc1ccnc(SCC(=O)[C@@]2(O)CCC3C4CCC5=Cc6c(cnn6-c6ccc(F)cc6)CC5(C)C4[C@@H](O)CC32C)n1 (stereo partly shown) [Compound 97] |  | > 80 | 0.06 to 20
CC12Cc3cnn(-c4ccc(F)cc4)c3C=C1CCC1C2[C@@H](O)CC2(C)C1CC[C@]2(O)C(=O)CSc1ncnc2ccccc12 (stereo partly shown) [Compound 98] |  | > 80 | 0.06 to 20
CC12Cc3cnn(-c4ccc(F)cc4)c3C=C1CCC1C2[C@@H](O)CC2(C)C1CC[C@]2(OC(=O)c1ccco1)C(=O)CSc1nc2ncccc2o1 (stereo partly shown) [Compound 99] |  | > 80 | 0.06 to 20
Cn1nnnc1SCC(=O)[C@@]1(O)CCC2C3CCC4=Cc5c(cnn5-c5ccc(F)cc5)CC4(C)C3[C@@H](O)CC21C (stereo partly shown) [Compound 100] |  | > 80 | 0.06 to 20
Cc1cc(C)nc(SCC(=O)[C@@]2(O)CCC3C4CCC5=Cc6c(cnn6-c6ccc(F)cc6)CC5(C)C4[C@@H](O)CC32C)n1 (stereo partly shown) [Compound 101] |  | > 80 | 0.06 to 20
CC12Cc3cnn(-c4ccc(F)cc4)c3C=C1CCC1C2[C@@H](O)CC2(C)C1CC[C@]2(O)C(=O)CSc1nc2ccc(N)cc2s1 (stereo partly shown) [Compound 102] |  | > 80 | 0.06 to 20
COc1ccc2nc(SCC(=O)[C@@]3(O)CCC4C5CCC6=Cc7c(cnn7-c7ccc(F)cc7)CC6(C)C5[C@@H](O)CC43C)sc2c1 (stereo partly shown) [Compound 103] |  | > 80 | 0.06 to 20
CC12Cc3cnn(-c4ccc(F)cc4)c3C=C1CCC1C2[C@@H](O)CC2(C)C1CC[C@]2(O)C(=O)COc1nc2ccccc2o1 (stereo partly shown) [Compound 104] |  | > 80 | 0.06 to 20
CC12Cc3cnn(-c4ccc(F)cc4)c3C=C1CCC1C2[C@@H](O)CC2(C)C1CC[C@]2(O)C(=O)COc1nc2ccccc2[nH]1 (stereo partly shown) [Compound 111] |  | > 80 | 0.06 to 20
Cn1c(OCC(=O)[C@@]2(O)CCC3C4CCC5=Cc6c(cnn6-c6ccc(F)cc6)CC5(C)C4[C@@H](O)CC32C)nc2ccccc21 (stereo partly shown) [Compound 112] |  | > 80 | 0.06 to 20
CC12Cc3cnn(-c4ccc(F)cc4)c3C=C1CCC1C2[C@@H](O)CC2(C)C1CC[C@]2(O)C(=O)COc1nccc2ccccc12 (stereo partly shown) [Compound 114] |  | > 80 | 0.06 to 20
CC12Cc3cnn(-c4ccccc4)c3C=C1CCC1C2[C@@H](O)CC2(C)C1CC[C@]2(O)C(=O)COc1ccc2ccccc2c1 (stereo partly shown) [Compound 117] |  | > 80 | 0.06 to 20
CC12Cc3cnn(-c4ccccc4)c3C=C1CCC1C2[C@@H](O)CC2(C)C1CC[C@]2(O)C(=O)COc1nc2ccccc2[nH]1 (stereo partly shown) [Compound 118] |  | > 80 | 0.06 to 20
Cn1c(OCC(=O)[C@@]2(O)CCC3C4CCC5=Cc6c(cnn6-c6ccccc6)CC5(C)C4[C@@H](O)CC32C)nc2ccccc21 (stereo partly shown) [Compound 119] |  | > 80 | 0.06 to 20
CC12Cc3cnn(-c4ccccc4)c3C=C1CCC1C2[C@@H](O)CC2(C)C1CC[C@]2(O)C(=O)COc1nc2ccccc2s1 (stereo partly shown) [Compound 120] |  | > 80 | 0.06 to 20
CC12Cc3cn(-c4ccccc4)nc3C=C1CCC1C2[C@@H](O)CC2(C)C1CC[C@]2(O)C(=O)COc1nc2ccccc2s1 (stereo partly shown) [Compound 121] |  | < 60 | 
CC12Cc3cnn(-c4ccccc4)c3C=C1CCC1C2[C@@H](O)CC2(C)C1CC[C@]2(O)C(=O)COc1ccccn1 (stereo partly shown) [Compound 122] |  | > 80 | 0.06 to 20
Cn1c(SCC(=O)[C@@]2(O)CCC3C4CCC5=Cc6c(cnn6-c6ccc(F)cc6)CC5(C)C4[C@@H](O)CC32C)nc2cc(S(N)(=O)=O)ccc21 (stereo partly shown) [Compound 123] |  | > 80 | 0.06 to 20
CC12Cc3cnn(C4CCCCC4)c3C=C1CCC1C2[C@@H](O)CC2(C)C1CC[C@]2(O)C(=O)CSc1ncccn1 (stereo partly shown) [Compound 126] |  | > 80 | 0.06 to 20
Cc1nc(SCC(=O)[C@@]2(O)CCC3C4CCC5=Cc6c(cnn6C6CCCCC6)CC5(C)C4[C@@H](O)CC32C)sc1C (stereo partly shown) [Compound 130] |  | > 80 | 0.06 to 20
CC12Cc3cnn(C4CCCCC4)c3C=C1CCC1C2[C@@H](O)CC2(C)C1CC[C@]2(O)C(=O)CSc1nc(-c2ccccc2)cs1 (stereo partly shown) [Compound 133] |  | > 80 | 21 to 65
